According to patent US9676771B2, “Compounds for inhibiting drug-resistant strains of HIV-1 integrase” (priority 2013, dated 2017):
Where two headings read alike, the source gives them in different places.

What was measured:
in vitro = assay type: cell-based, human; conditions: human, 50% reduction in the level of ATP in HOS cells
Description: Cellular Cytotoxicity Assay.
On the day of the screen, cells were treated with compounds at the appropriate concentration range chosen and incubated at 37° C. for 48 hrs. Cytotoxicity was measured by monitoring ATP levels via a luciferase reporter assay. Cells were lysed in 50 μL cell lysis buffer (PerkinElmer, Waltham, Mass.) and shaken at 700 rpm at room temperature for 5 mins After the addition of 50 μL of ATPlite buffer (PerkinElmer) directly onto the lysed cells and shaking at 700 rpm at room temperature for 5 mins, ATP levels were monitored by measuring luciferase activity using a microplate reader. Activity was normalized to cytotoxicity in the absence of target compounds. KaleidaGraph (Synergy Software, Reading, Pa.) was used to perform regression analysis on the data. CC50 values were determined from the fit model.

[1] = tested on: HIV-1 constructs containing wild-type IN; assay: microbe, parasite or virus in culture; assay type: cell-based; conditions: for EC50: Human immunodeficiency virus 1
Source text: (§1) Single-Round HIV-1 Infectivity Assay.
(§2) Human embryonyl kidney cell culture cell line 293 was acquired from the American type Culture Collection (ATCC).
(§3) The virus-containing supernatants were then harvested, clarified by low-speed centrifugation, filtrated, and diluted for preparation in infection assays. […] Activity was normalized to infectivity in the absence of target compounds. KaleidaGraph (Synergy Software, Reading, Pa.) was used to perform regression analysis on the data. EC50 values were determined from the fit model.

[2] = tested on: HIV-1 constructs containing mutant IN G140S-Q148H; assay: microbe, parasite or virus in culture; assay type: cell-based; conditions: for EC50: Human immunodeficiency virus 1
Source text: as §1, §2, §3
(§4) pNLNgoMIVR^−ΔEnv.LUC has been described previously (Zhao et al. 2008). The integrase codon reading frame was removed from pNLNgoMIVR^−ΔEnv LUC (between KpnI and SalI sites) and placed between the KpnI and SalI sites of pBluescript II KS+. Using that construct as the wild-type template, we prepared the following HIV-1 Integrase-resistant mutants via the QuikChange II XL (Stratagene, La Jolla, Calif.) site-directed mutagenesis protocol: H51Y, T66I, E92Q, G118R, Y143R, Q148H, Q148K, N155H, R263K, G140S+Q148H, G140A+Q148K, E138K+Q148K, and H51Y+R263K. The following sense with cognate antisense (not shown) oligonucleotides (Integrated DNA Technologies, Coralville, Iowa) were used in the mutagenesis: H51Y, 5′-[…]-3; T66I, 5′-[…]-3′; E92Q, 5′-[…]-3′; G118R, 5′-[…]-3′; E138K, 5′-[…]-3; G140A, 5′-[…]-3; G140S, 5′-[…]-3′; Y143R, 5′-[…]-3′; Q148H, 5′-[…]-3′; Q148K, 5′-[…]-3; N155H, 5′-[…]-3′; R263K 5′-[…]-3′. The double mutation G140S+Q148H was constructed by using the previously generated Q148H mutant and the appropriate oligonucleotide for the 2nd mutation, G140S. The double mutation G140A+Q148K was made by using the Q148K mutant and the appropriate oligonucleotide for the 2nd mutation, G140A. The double mutation E138K+Q148K was made by using the Q148K mutant and the appropriate oligonucleotide for the 2nd mutation, E138K. The double mutation H51Y+R263K was constructed by using the previously generated H51Y mutant and the appropriate oligonucleotides for the 2nd mutation, R263K. The DNA sequence of each construct was verified independently by DNA sequence determination. […] These DNA sequences were additionally checked independently by DNA sequence determination.

[3] = tested on: HIV-1 constructs containing mutant IN Y143R; assay: microbe, parasite or virus in culture; assay type: cell-based; conditions: for EC50: Human immunodeficiency virus 1
Source text: as §1, §2, §3, §4

[4] = tested on: HIV-1 constructs containing mutant IN N155H; assay: microbe, parasite or virus in culture; assay type: cell-based; conditions: for EC50: Human immunodeficiency virus 1
Source text: as §1, §2, §3, §4

HIV-1 integrase = HIV-1 integrase (Human immunodeficiency virus type 1 group M subtype B, UniProt P12497); assay: biochemical; assay type: biochemical
Description: In Vitro Integrase Assay.
Integrase reactions were carried out by adding drugs or an equivalent volume of 100% dimethyl sulfoxide (DMSO; used as the drug solvent) to a mixture of 20 nM DNA and 400 nM integrase in 50 mM morpholinepropanesulfonic acid (pH 7.2), 7.5 mM MgCl2, and 14 mM 2-mercaptoethanol. Reactions were performed at 37° C. for 2 h and quenched by the addition of an equal volume of loading buffer (formamide containing 1% sodium dodecyl sulfate, 0.25% bromophenol blue, and xylene cyanol). […] Dried gels were visualized using a Typhoon 8600 (GE Healthcare, Piscataway, N.J.). Densitometric analyses were performed using ImageQuant 5.1 software from GE Healthcare.

[5] = Table 2, cells infected with lentiviral vector harboring WT IN, read-out: EC50
[6] = Table 3, WT IN, read-out: EC50 (nM, WT)
[7] = Table 3, G140S-Q148H double mutant, read-out: EC50 (nM, IN Mutants) SH
[8] = Table 3, read-out: EC50 (nM, IN Mutants) Y143R
[9] = Table 3, read-out: EC50 (nM, IN Mutants) N155H
[10] = Table 1, 3′-processing, read-out: IC50 Values 3′-Processing
[11] = Table 1, strand transfer, read-out: IC50 Values Strand transfer
[12] = Table 4, 3′-processing, read-out: IC50 (3^+-Processing)
[13] = Table 4, strand transfer, read-out: IC50 (Strand Transfer)
[14] = Table 8, WT IN, read-out: EC50 (nM, WT)
[15] = Table 8, read-out: EC50 (nM, IN mutants) G140S/Q148H
[16] = Table 8, read-out: EC50 (nM, IN mutants) Y143R
[17] = Table 8, read-out: EC50 (nM, IN mutants) N155H
[18] = Table 7, 3′-processing, read-out: IC50 (μM) 3′-P
[19] = Table 7, strand transfer, read-out: IC50 (μM) ST

| Compound | CC50 (in vitro; Table 3) [nM] | EC50 [1, 6] [nM] | EC50 [2, 7] [nM] | EC50 [3, 8] [nM] | EC50 [4, 9] [nM] | IC50 (HIV-1 integrase; [12]) [µM] | IC50 (HIV-1 integrase; [13]) [µM] | CC50 (in vitro; Table 8) [nM] | EC50 [1, 14] [nM] | EC50 [2, 15] [nM] | EC50 [3, 16] [nM] | EC50 [4, 17] [nM] | IC50 (HIV-1 integrase; [18]) [µM] | IC50 (HIV-1 integrase; [19]) [µM] | other results |
| --- | --- | --- | --- | --- | --- | --- | --- | --- | --- | --- | --- | --- | --- | --- | --- |
| O=C(NCc1ccc(F)c(Cl)c1)c1c(O)c2cccnc2n(O)c1=O [XZ365, N-(3-chloro-4-fluorobenzyl)-1,4-dihydroxy-2-oxo-1,2-dihydro-1,8-naphthyridine-3-carboxamide] | 102000 ± 17800 | 34.9 ± 12.3 | 489 ± 61.8 | 53.6 ± 9.2 | 148 ± 8.3 | – | – | – | – | – | – | – | – | – | CC50 (in vitro; Table 2): 102000 nM; SI [1]: 2,911; Si (selectivity index) [1]: 2,920; EC50 [1, 5]: 35 nM; Integrase Mutants SH (G140S-Q148H), fold-change in EC50 relative to WT [2]: 14 x; Integrase Mutants Y143R, fold-change in EC50 relative to WT [3]: 2 x; Integrase Mutants N155H, fold-change in EC50 relative to WT [4]: 4 x; IC50 (HIV-1 integrase; [10]): 4.7 ± 0.7 µM; IC50 (HIV-1 integrase; [11]): 0.027 ± 0.006 µM |
| O=C(NCc1ccc(F)c(F)c1)c1c(O)c2cccnc2n(O)c1=O [XZ367, N-(3,4-difluorobenzyl)-1,4-dihydroxy-2-oxo-1,2-dihydro-1,8-naphthyridine-3-carboxamide] | 192000 ± 19000 | 20 ± 6.2 | 507 ± 125 | 44.5 ± 12.2 | 189 ± 70.1 | – | – | – | – | – | – | – | – | – | CC50 (in vitro; Table 2): 192000 nM; SI [1]: 9,585; Si (selectivity index) [1]: 9,585; EC50 [1, 5]: 20 nM; Integrase Mutants SH (G140S-Q148H), fold-change in EC50 relative to WT [2]: 25 x; Integrase Mutants Y143R, fold-change in EC50 relative to WT [3]: 2 x; Integrase Mutants N155H, fold-change in EC50 relative to WT [4]: 9 x; IC50 (HIV-1 integrase; [10]): 3.6 ± 0.6 µM; IC50 (HIV-1 integrase; [11]): 0.04 ± 0.01 µM |
| CN(C)c1c(C(=O)NCc2ccc(F)cc2F)c(=O)n(O)c2ncccc12 [XZ372, N-(2,4-difluorobenzyl)-4-(dimethylamino)-1-hydroxy-2-oxo-1,2-dihydro-1,8-naphthyridine-3-carboxamide] | 13000 ± 1800 | 268 ± 8.03 | 6800 ± 0.4 | 273 ± 51.7 | 2300 ± 700 | 21 ± 2 | 0.087 ± 0.012 | – | – | – | – | – | – | – | Si (selectivity index) ([1]; Table 3, ratio of CC50 to EC50): 49 |
| O=C(NCc1ccc(F)cc1F)c1c(N2CCOCC2)c2cccnc2n(O)c1=O [XZ373, N-(2,4-difluorobenzyl)-1-hydroxy-4-morpholino-2-oxo-1,2-dihydro-1,8-naphthyridine-3-carboxamide] | 8400 ± 3200 | 1200 ± 260 | 6920 ± 2 | 1800 ± 870 | 3730 ± 920 | 77 ± 12 | 0.079 ± 0.013 | – | – | – | – | – | – | – | Si (selectivity index) ([1]; Table 3, ratio of CC50 to EC50): 7 |
| O=C(NCc1ccc(F)cc1F)c1c(NC2CCCCCC2)c2cccnc2n(O)c1=O [XZ376, 4-(cycloheptylamino)-N-(2,4-difluorobenzyl)-1-hydroxy-2-oxo-1,2-dihydro-1,8-naphthyridine-3-carboxamide] | 68700 ± 8700 | 12.2 ± 2.9 | 35 ± 11.7 | 6.6 ± 1.7 | 13.7 ± 3.8 | 13.1 ± 1.1 | 0.46 ± 0.18 | – | – | – | – | – | – | – | Si (selectivity index) ([1]; Table 3, ratio of CC50 to EC50): 4,804 |
| O=C(NCc1ccc(F)cc1F)c1cc2cccnc2n(O)c1=O [XZ390, N-(2,4-difluorobenzyl)-1-hydroxy-2-oxo-1,2-dihydro-1,8-naphthyridine-3-carboxamide] | > 250000 | 5.1 ± 1.9 | 438 ± 121 | 4.9 ± 0.77 | 134 ± 23 | – | – | – | – | – | – | – | – | – | Si (selectivity index) [1]: >25,000; IC50 (HIV-1 integrase; [10]): 6.1 ± 0.8 µM; IC50 (HIV-1 integrase; [11]): 0.041 ± 0.012 µM |
| COc1ccc2c(N)c(C(=O)NCc3ccc(F)cc3F)c(=O)n(O)c2n1 [XZ406, 4-amino-N-(2,4-difluorobenzyl)-1-hydroxy-7-methoxy-2-oxo-1,2-dihydro-1,8-naphthyridine-3-carboxamide] | – | – | – | – | – | 18 ± 2 | 0.011 ± 0.002 | – | – | – | – | – | – | – | CC50 (in vitro; Table 5): 2200 ± 430 nM; EC50 ([1]; Table 5, WT IN, read-out: EC50 (nM, WT)): 30.3 ± 9.1 nM; SI ([1]; Table 5, ratio of CC50 to EC50): 73; EC50 ([2]; Table 5, G1405-Q148H double mutant, read-out: EC50 (nM, IN Mutants) SH): 3600 ± 1600 nM; EC50 ([3]; Table 5, read-out: EC50 (nM, IN Mutants) Y143R): 62.2 ± 25.6 nM; EC50 ([4]; Table 5, read-out: EC50 (nM, IN Mutants) N155H): 400 ± 101 nM |
| Nc1c(C(=O)NCc2ccc(F)cc2F)c(=O)n(O)c2ncc(Br)cc12 [XZ418, 4-Amino-6-bromo-N-(2,4-difluorobenzyl)-1-hydroxy-2-oxo-1,2-dihydro-1,8-naphthyridine-3-carboxamide] | – | – | – | – | – | – | – | > 250000 | 0.99 | 112 | 1.95 | 18.8 | 7.9 ± 0.8 | 0.0032 ± 0.0005 | – |
| Nc1c(C(=O)NCc2ccc(F)cc2F)c(=O)n(O)c2ncc(-c3ccccc3)cc12 [XZ420, 4-Amino-N-(2,4-difluorobenzyl)-1-hydroxy-2-oxo-6-phenyl-1,2-dihydro-1,8-naphthyridine-3-carboxamide] | – | – | – | – | – | – | – | 184000 | 3.4 ± 0.7 | 39.6 | 3.7 | 18.7 | 17.9 ± 1.6 | 0.0016 ± 0.0003 | – |
| O=C(NCc1ccc(F)cc1F)c1c(O)c2cc(CCCCCO)cnc2n(O)c1=O [XZ421, N-(2,4-Difluorobenzyl)-1,4-dihydroxy-6-(5-hydroxypentyl)-2-oxo-1,2-dihydro-1,8-naphthyridine-3-carboxamide] | – | – | – | – | – | – | – | > 250000 | 23.7 | 28.5 | 8.3 | 31.6 | 14.3 ± 1.1 | 0.0124 ± 0.0026 | – |
| CN(C)CCCc1cnc2c(c1)c(N)c(C(=O)NCc1ccc(F)cc1F)c(=O)n2O [XZ425, 4-Amino-N-(2,4-difluorobenzyl)-6-(3-(dimethylamino)propyl)-1-hydroxy-2-oxo-1,2-dihydro-1,8-naphthyridine-3-carboxamide] | – | – | – | – | – | – | – | 5000 | 6.07 | 31.7 | 7 ± 2.3 | 29.4 | 3 ± 0.4 | 0.0143 ± 0.0022 | – |
| Nc1c(C(=O)NCc2ccc(F)cc2F)c(=O)n(O)c2ncc(CCCCCCOC(=O)c3ccccc3)cc12 [XZ427, 6-(5-Amino-6-((2,4-difluorobenzyl)carbamoyl)-8-hydroxy-7-oxo-7,8-dihydro-1,8-naphthyridin-3-yl)hexyl benzoate] | – | – | – | – | – | – | – | 14400 | 4.8 | 21 | 3.5 | 5.4 | 143 ± 14 | 3.34 ± 0.557 | – |
